Measured values reported in patent publication US8569344B2, “N-piperidinyl acetamide derivatives as calcium channel blockers” (Zalicus Pharmaceuticals Ltd., priority 2008, dated 2013).

Tests used:
[1] = biological target: T1, human α1H T-type channels (Homo sapiens, UniProt O95180); assay: T-type calcium channel block, whole cell patch clamp in HEK cells (α1H); format: cell-based; settings: HEK cells, patch clamp, mainly non-inactivated protocol; values above 10 μM shown as 10 μM; read-out: T-type Calcium Channel Block α1H IC50
T1 construct: expressed in transfected cells; host or cells: HEK 293
Experimental: (§1) T-type calcium channel blocking activity was assayed in human embryonic kidney cells, HEK 293, stably transfected with the T-type calcium channel subunits. Briefly, cells were cultured in Dulbecco's modified eagle medium (DMEM) supplemented with 10% fetal bovine serum, 200 U/ml penicillin and 0.2 mg/ml streptomycin at 37° C. with 5% CO2. At 85% confluency cells were split with 0.25% trypsin/1 mM EDTA and plated at 10% confluency on glass coverslips. […] Fresh DMEM was supplied and the cells transferred to 28° C./5% CO2. Cells were incubated for 1 to 2 days prior to whole cell recording.
(§2) Standard patch-clamp techniques were employed to identify blockers of T-type currents. Briefly, previously described HEK cell lines stably expressing human α1G, α1H and α1I T-type channels were used for all the recordings (passage #: 4-20, 37° C., 5% CO2). Whole cell patch clamp experiments were performed using an Axopatch 200B amplifier (Axon Instruments, Burlingame, Calif.) linked to a personal computer equipped with pCLAMP software. Data were analyzed using Clampfit (Axon Instruments) and SigmaPlot 4.0 (Jandel Scientific). To obtain T-type currents, plastic dishes containing semi-confluent cells were positioned on the stage of a ZEISS AXIOVERT S100 microscope after replacing the culture medium with external solution (see below). Whole-cell patches were obtained using pipettes (borosilicate glass with filament, O.D.: 1.5 mm, I.D.: 0.86 mm, 10 cm length), fabricated on a SUTTER P-97 puller with resistance values of ˜5 MΩ (see below for internal solution).
(§3) In the non-inactivating protocol, the holding potential is set at −110 mV and with a pre-pulse at −100 mV for 1 second prior to the test pulse at −40 mV for 50 ms.
(§4) Test compounds were dissolved in external solution, 0.1-0.01% DMSO. After ˜10 min rest, they were applied by gravity close to the cell using a WPI microfil tubing. The “non-inactivated” pre-pulse was used to examine the resting block of a compound. The “inactivated” protocol was employed to study voltage-dependent block. […] Values are shown in μM and values above 10 μM are simply represented as 10 μM.

[2] = biological target: T2, human α1G T-type channels (Homo sapiens, UniProt O43497); assay: T-type calcium channel block, whole cell patch clamp in HEK cells (α1G); format: cell-based; settings: HEK cells, patch clamp, mainly non-inactivated protocol; values above 10 μM shown as 10 μM, below 0.30 μM shown as 0.30 μM; read-out: T-type Calcium Channel Block α1G IC50
T2 construct: expressed in transfected cells; host or cells: HEK 293
Experimental: as §1, §2, §3, §4

T2 sequence (O43497 whole entry): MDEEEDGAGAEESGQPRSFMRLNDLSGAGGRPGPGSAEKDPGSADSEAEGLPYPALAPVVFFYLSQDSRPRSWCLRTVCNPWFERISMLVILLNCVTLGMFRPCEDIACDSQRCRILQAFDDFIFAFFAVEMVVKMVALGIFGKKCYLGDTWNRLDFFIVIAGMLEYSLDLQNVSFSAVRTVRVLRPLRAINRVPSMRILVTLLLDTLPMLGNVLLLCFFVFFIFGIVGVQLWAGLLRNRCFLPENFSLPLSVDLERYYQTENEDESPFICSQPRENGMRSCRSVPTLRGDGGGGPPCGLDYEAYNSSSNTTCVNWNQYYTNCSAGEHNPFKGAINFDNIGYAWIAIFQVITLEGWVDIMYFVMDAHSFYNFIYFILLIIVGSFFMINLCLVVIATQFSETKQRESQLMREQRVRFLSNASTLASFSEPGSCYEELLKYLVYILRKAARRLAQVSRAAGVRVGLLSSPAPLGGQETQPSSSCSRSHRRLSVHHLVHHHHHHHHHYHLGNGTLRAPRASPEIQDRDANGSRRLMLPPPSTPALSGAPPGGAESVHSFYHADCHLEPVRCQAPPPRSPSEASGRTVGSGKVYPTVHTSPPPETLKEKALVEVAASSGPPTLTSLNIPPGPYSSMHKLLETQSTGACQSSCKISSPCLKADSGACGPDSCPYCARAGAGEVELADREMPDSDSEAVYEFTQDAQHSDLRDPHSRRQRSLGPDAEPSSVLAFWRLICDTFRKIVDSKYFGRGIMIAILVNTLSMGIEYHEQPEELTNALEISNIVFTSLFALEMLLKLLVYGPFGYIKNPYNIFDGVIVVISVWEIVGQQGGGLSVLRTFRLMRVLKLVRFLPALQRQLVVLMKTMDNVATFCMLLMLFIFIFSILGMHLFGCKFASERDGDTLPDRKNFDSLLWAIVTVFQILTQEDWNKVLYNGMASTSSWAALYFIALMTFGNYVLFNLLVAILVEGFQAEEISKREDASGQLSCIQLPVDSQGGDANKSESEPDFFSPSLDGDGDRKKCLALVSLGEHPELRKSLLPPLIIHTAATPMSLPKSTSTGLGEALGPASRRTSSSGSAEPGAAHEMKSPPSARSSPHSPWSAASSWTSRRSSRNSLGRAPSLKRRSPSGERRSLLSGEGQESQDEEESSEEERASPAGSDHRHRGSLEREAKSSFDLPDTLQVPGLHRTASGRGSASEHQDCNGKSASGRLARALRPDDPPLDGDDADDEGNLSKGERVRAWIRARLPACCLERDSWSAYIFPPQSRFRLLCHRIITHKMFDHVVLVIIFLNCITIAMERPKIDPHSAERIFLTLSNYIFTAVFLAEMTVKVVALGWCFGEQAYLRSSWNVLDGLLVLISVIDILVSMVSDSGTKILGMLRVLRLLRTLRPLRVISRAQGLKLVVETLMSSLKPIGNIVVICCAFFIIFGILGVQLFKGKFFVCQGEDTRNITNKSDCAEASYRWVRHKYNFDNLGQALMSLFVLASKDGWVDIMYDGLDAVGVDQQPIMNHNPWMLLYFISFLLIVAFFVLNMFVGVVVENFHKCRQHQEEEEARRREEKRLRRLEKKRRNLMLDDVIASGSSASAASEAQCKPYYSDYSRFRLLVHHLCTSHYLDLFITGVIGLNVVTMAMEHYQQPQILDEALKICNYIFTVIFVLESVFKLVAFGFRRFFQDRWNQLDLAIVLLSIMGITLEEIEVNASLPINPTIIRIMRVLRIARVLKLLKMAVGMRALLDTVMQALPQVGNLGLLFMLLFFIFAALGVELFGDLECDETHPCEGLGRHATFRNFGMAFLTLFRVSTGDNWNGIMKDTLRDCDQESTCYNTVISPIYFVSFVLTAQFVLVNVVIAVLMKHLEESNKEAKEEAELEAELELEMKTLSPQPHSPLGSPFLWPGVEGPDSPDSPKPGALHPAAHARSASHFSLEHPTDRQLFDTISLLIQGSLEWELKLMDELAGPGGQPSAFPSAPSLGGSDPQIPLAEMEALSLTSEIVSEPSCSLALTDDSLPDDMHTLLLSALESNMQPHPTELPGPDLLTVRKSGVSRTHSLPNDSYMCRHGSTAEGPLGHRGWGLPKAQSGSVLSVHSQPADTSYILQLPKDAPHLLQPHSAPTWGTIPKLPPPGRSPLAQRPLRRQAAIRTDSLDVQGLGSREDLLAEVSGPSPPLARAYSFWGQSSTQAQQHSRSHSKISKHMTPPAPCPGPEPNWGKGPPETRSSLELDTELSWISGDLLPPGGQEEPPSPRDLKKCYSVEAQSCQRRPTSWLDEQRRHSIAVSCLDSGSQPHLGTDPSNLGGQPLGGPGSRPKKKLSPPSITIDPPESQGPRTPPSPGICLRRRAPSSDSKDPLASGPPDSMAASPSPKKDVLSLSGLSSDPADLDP
T1 sequence (O95180 whole entry): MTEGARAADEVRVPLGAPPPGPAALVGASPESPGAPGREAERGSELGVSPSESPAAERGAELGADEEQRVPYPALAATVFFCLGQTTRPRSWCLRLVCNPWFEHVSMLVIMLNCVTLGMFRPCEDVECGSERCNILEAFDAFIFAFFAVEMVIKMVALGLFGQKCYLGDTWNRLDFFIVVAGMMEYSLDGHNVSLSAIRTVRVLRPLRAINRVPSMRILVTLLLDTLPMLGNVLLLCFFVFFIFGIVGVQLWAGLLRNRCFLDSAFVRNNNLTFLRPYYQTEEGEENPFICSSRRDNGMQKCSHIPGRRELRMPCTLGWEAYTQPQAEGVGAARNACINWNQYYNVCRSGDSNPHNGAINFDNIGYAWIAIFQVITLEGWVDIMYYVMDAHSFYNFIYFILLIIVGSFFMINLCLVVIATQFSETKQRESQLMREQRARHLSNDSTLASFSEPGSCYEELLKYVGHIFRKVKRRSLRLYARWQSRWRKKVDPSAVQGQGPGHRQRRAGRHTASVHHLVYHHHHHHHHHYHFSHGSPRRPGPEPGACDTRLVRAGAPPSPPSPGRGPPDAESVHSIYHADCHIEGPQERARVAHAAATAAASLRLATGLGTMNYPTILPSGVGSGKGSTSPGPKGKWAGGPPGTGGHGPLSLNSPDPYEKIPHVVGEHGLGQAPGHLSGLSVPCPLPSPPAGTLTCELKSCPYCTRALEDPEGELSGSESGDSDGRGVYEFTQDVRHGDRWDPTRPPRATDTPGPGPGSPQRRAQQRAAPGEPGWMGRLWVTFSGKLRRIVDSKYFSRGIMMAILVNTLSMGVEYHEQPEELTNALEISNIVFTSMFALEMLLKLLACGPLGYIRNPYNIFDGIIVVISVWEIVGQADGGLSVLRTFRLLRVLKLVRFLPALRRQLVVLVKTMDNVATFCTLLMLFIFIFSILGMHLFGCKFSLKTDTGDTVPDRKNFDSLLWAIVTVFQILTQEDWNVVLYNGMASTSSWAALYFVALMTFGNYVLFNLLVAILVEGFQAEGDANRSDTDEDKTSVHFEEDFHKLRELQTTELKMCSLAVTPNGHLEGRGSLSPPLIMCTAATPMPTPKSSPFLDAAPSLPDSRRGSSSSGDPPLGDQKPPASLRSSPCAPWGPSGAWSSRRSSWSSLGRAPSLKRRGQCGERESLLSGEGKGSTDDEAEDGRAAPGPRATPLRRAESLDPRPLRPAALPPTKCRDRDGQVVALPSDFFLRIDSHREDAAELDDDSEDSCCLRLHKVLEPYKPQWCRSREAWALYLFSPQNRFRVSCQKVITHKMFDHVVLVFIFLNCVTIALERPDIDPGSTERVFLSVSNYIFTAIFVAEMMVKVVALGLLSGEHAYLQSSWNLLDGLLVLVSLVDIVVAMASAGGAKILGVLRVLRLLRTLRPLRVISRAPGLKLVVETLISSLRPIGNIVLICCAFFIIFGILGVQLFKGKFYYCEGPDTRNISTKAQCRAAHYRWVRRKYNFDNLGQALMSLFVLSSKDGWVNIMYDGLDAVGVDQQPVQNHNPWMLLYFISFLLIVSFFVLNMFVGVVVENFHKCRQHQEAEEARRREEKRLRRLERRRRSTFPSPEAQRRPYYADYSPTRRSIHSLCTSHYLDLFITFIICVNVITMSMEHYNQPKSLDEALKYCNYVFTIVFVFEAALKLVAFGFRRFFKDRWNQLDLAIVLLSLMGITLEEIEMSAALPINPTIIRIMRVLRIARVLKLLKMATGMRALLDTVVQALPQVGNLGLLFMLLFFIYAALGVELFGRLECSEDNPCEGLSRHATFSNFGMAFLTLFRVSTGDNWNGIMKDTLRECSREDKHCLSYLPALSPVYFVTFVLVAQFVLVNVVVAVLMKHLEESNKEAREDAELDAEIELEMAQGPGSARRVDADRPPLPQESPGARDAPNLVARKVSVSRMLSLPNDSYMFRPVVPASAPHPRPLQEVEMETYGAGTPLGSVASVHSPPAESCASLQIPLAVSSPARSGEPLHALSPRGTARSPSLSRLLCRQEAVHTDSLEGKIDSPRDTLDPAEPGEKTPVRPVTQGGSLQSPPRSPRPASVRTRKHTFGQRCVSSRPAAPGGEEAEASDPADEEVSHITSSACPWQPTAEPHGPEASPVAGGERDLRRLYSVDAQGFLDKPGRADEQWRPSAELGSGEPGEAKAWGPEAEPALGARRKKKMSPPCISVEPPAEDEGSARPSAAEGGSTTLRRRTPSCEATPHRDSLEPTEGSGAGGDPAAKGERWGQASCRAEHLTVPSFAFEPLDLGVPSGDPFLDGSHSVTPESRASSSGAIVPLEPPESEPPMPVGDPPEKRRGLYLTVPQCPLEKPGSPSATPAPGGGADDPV

| IC50 [1] [nM] | IC50 [2] [nM] | Structure (SMILES) |
| --- | --- | --- |
| 1320 | – | CC(C)(CN1CCC(CNC(=O)c2cc(F)cc(C(F)(F)F)c2)CC1)NS(=O)(=O)C(F)(F)F [Compound 6, 3-fluoro-N-((1-(2-methyl-2-(trifluoromethylsulfonamido)propyl)piperidin-4-yl)methyl)-5-(trifluoromethyl)benzamide] |
| 4330 | – | CCS(=O)(=O)NC(C)(C)CN1CCC(CNC(=O)c2cc(F)cc(C(F)(F)F)c2)CC1 [Compound 7, N-((1-(2-(ethylsulfonamido)-2-methylpropyl)piperidin-4-yl)methyl)-3-fluoro-5-(trifluoromethyl)benzamide] |
| 2420 | – | CC(C)(CN1CCC(CNC(=O)c2cc(F)cc(C(F)(F)F)c2)CC1)NS(=O)(=O)C1CC1 [Compound 8, N-((1-(2-(cyclopropanesulfonamido)-2-methylpropyl)piperidin-4-yl)methyl)-3-fluoro-5-(trifluoromethyl)benzamide] |
| 190 | – | CC(C)CS(=O)(=O)NCCN1CCC(CNC(=O)c2cc(C(F)(F)F)cc(C(F)(F)F)c2)CC1 [Compound 27, N-((1-(2-(2-methylpropylsulfonamido)ethyl)piperidin-4-yl)methyl)-3,5-bis(trifluoromethyl)benzamide] |
| 4010 | – | CCC(=O)NCCN1CCC(CNC(=O)c2cc(C(F)(F)F)cc(C(F)(F)F)c2)CC1 [Compound 58, N-((1-(2-propionamidoethyl)piperidin-4-yl)methyl)-3,5-bis(trifluoromethyl) benzamide] |
| 220 | – | CC(C)(C)C(=O)NCCN1CCC(CNC(=O)c2cc(C(F)(F)F)cc(C(F)(F)F)c2)CC1 [Compound 60, N-((1-(2-pivalamidoethyl)piperidin-4-yl)methyl)-3,5-his(trifluoromethyl)benzamide] |
| > 10000 | – | CN1CCC(C(=O)NCCN2CCC(CNC(=O)c3cc(C(F)(F)F)cc(C(F)(F)F)c3)CC2)CC1 [Compound 61, N-(2-(4-((3,5-bis(trifluoromethyl)benzamido)methyl)piperidin-1-yl)ethyl)-1-methylpiperidin-4-carboxamide] |
| 230 | – | O=C(NCC1CCN(CCNC(=O)C2CCCC2)CC1)c1cc(C(F)(F)F)cc(C(F)(F)F)c1 [Compound 62, N-((1-(2-(cyclopentanecarboxamido)ethyl)piperidin-4-yl)methyl)-3,5-bis(trifluoromethyl)benzamide] |
| 430 | – | O=C(CC1CC1)NCCN1CCC(CNC(=O)c2cc(C(F)(F)F)cc(C(F)(F)F)c2)CC1 [Compound 63, N-((1-(2-(2-cyclopropylacetamido)ethyl)piperidin-4-yl)methyl)-3,5-bis(trifluoromethyl)benzamide] |
| 200 | – | C[C@H]1CC[C@H](C(=O)NCCN2CCC(CNC(=O)c3cc(C(F)(F)F)cc(C(F)(F)F)c3)CC2)CC1 [Compound 64, N-((1-(2-((1r,4r)-4-methylcyclohexanecarboxamido)ethyl)piperidin-4-yl)methyl)-3,5-bis(trifluoromethyl)benzamide] |
| 6370 | – | CC(C)(O)C(=O)NCCN1CCC(CNC(=O)c2cc(C(F)(F)F)cc(C(F)(F)F)c2)CC1 [Compound 65, N-((1-(2-(2-hydroxy-2-methylpropanamido)ethyl)piperidin-4-yl)methyl)-3,5-bis(trifluoromethyl) benzamide] |
| 370 | – | O=C(CCC(F)(F)F)NCCN1CCC(CNC(=O)c2cc(C(F)(F)F)cc(C(F)(F)F)c2)CC1 [Compound 66, N-((1-(2-(4,4,4-trifluorobutanamido)ethyl)piperidin-4-yl)methyl)-3,5-bis(trifluoromethyl) benzamide] |
| 7560 | – | COCCC(=O)NCCN1CCC(CNC(=O)c2cc(C(F)(F)F)cc(C(F)(F)F)c2)CC1 [Compound 68, N-((1-(2-(3-methoxypropanamido)ethyl)piperidin-4-yl)methyl)-3,5-bis(trifluoromethyl) benzamide] |
| 60 | – | O=C(CN1CCC(CNC(=O)c2cc(C(F)(F)F)cc(C(F)(F)F)c2)CC1)NC1CCCC1 [Compound 92, N-((1-(2-(cyclopentylamino)-2-oxoethyl)piperidin-4-yl)methyl)-3,5-bis(trifluoromethyl)benzamide] |
| 90 | – | CC1CCCCC1NC(=O)CN1CCC(CNC(=O)c2cc(C(F)(F)F)cc(C(F)(F)F)c2)CC1 (centres unmarked) [Compound 93] |
| 60 | – | O=C(CN1CCC(CNC(=O)c2cc(C(F)(F)F)cc(C(F)(F)F)c2)CC1)NC1CCCCC1 [Compound 94, N-((1-(2-(cyclohexylamino)-2-oxoethyl)piperidin-4-yl)methyl)-3,5-bis(trifluoromethyl)benzamide] |
| > 10000 | – | O=C(CN1CCC(CNC(=O)c2cc(C(F)(F)F)cc(C(F)(F)F)c2)CC1)NC1CC1 [Compound 95, N-((1-(2-(cyclopropylamino)-2-oxoethyl)piperidin-4-yl)methyl)-3,5-bis(trifluoromethyl)benzamide] |
| – | 4040 | O=C(NCC1CCN(C[C@@H]2CCCN2S(=O)(=O)CC2CC2)CC1)c1cc(F)cc(C(F)(F)F)c1 [Compound 421, (S)-N-((1-((1-(cyclopropylmethylsulfonyl)pyrrolidin-2-yl)methyl)piperidin-4-yl)methyl)-3-fluoro-5-(trifluoromethyl)benzamide] |
| – | 1930 | O=C(NCC1CCN(C[C@@H]2CCCN2S(=O)(=O)CCC(F)(F)F)CC1)c1cc(F)cc(C(F)(F)F)c1 [Compound 422, (S)-3-fluoro-5-(trifluoromethyl)-N-((1-((1-(3,3,3-trifluoropropyl-sulfonyl)pyrrolidin-2-yl)methyl)piperidin-4-yl)methyl) benzamide] |
| – | 2080 | CC(C)(C)C(=O)N1CCC[C@H]1CN1CCC(CNC(=O)c2cc(F)cc(C(F)(F)F)c2)CC1 [Compound 423, (S)-3-fluoro-N-((1-((1-pivaloyl-pyrrolidin-2-yl)methyl)piperidin-4-yl)methyl)-5-(trifluoromethyl) benzamide] |
| – | 440 | CC(C)(C)CC(=O)N1CCC[C@H]1CN1CCC(CNC(=O)c2cc(F)cc(C(F)(F)F)c2)CC1 [Compound 424, (S)-N-((1-((1-(3,3-dimethylbutanol)pyrrolidin-2-yl)methyl)piperidin-4-yl)methyl)-3-fluoro-5-(trifluoromethyl)benzamide] |
| – | < 300 | O=C(NCC1CCN(C[C@@H]2CCCN2C(=O)C2CCCC2)CC1)c1cc(F)cc(C(F)(F)F)c1 [Compound 425, (S)-N-((1-((1-(cyclopentanecarbonyl)pyrrolidin-2-yl)methyl)piperidin-4-yl)methyl)-3-fluoro-5-(trifluoromethyl)benzamide] |
| – | < 300 | O=C(NCC1CCN(C[C@@H]2CCCN2C(=O)CCC(F)(F)F)CC1)c1cc(F)cc(C(F)(F)F)c1 [Compound 426, (S)-3-fluoro-N-((1-((1-(4,4,4-trifluorobutanoyl)pyrrolidin-2-yl)methyl)piperidin-4-yl)methyl)-5-(trifluoromethyl)benzamide] |
| – | < 300 | CC(C)(C)NC(=O)CN1CCC(CNC(=O)C2(c3ccc(Cl)cc3)CCCC2)CC1 [Compound 428, N-((1-(2-(tert-buylamino)-2-oxoethyl)piperidin-4-yl)methyl)-1-(4-chlorophenyl)cyclopentanecarboxamide] |
| – | < 300 | CC(C)(C)NC(=O)CN1CCC(CNC(=O)c2cc(Br)cc(OC(F)(F)F)c2)CC1 [Compound 429, 3-bromo-N-((1-(2-(tert-butylamino)-2-oxoethyl)piperidin-4-yl)methyl)-5-(trifluoromethoxy)benzamide] |
| – | < 300 | CC(C)(CO)NC(=O)CN1CCC(CNC(=O)c2cc(C(F)(F)F)cc(C(F)(F)F)c2)CC1 [Compound 430, N-((1-(2-(1-hydroxy-2-methyl-propan-2-ylamino)-2-oxoethyl)piperidin-4-yl)methyl)-3,5-bis(trifluoromethyl)benzamide] |
| – | < 300 | CC1(NC(=O)CN2CCC(CNC(=O)c3cc(C(F)(F)F)cc(C(F)(F)F)c3)CC2)CCCCC1 [Compound 431, N-((1-(2-(1-methylcyclohexylamino)-2-oxoethyl)piperidin-4-yl)methyl)-3,5-bis(trifluoromethyl)benzamide] |
| – | < 300 | CC(C)(C)NC(=O)CN1CCC(CNC(=O)C2(c3ccccc3)CCCC2)CC1 [Compound 432, N-((1-(2-(tert-butylamino)-2-oxoethyl)piperidin-4-yl)methyl)-1-phenylcyclopentanecarboxamide] |
| – | > 10000 | Cc1cccc(C)c1NC(=O)CC1CCN(CCNS(=O)(=O)C(C)C)CC1 [Compound 433, N-(2,6-dimethylphenyl)-2-(1-(2-(1-methylethylsulfonamido)ethyl)piperidin-4-yl)acetamide] |
